Columns and labels:
Type in all cases: in vivo, human
[1] = test system: patients with secondary dysmenorrhea; assay: Treatment of patients with secondary dysmenorrhea, oral PQQ vs placebo, 3 months; settings: for Proportion of people with alleviation in secondary dysmenorrhea: 50 people
Protocol: Experiment number: 100 peoples have been diagnosed with secondary dysmenorrhea, with 50 peoples in the experimental group and the control group each. Experimental method: administering PQQ orally to the patients of experimental group, administering placebo orally to the patients of control group. The duration of the experiment was 3 months, and menstrual pain and pregnancy were asked and recorded. The dysmenorrhea index is determined based on the VAS scoring standard, which means patients self-evaluate the intensity of pain and the degree of psychologically unpleasant experience according to the degree of pain they feel, including: • 0 points: no pain; • 1-3 points: mild pain; • 4-6 points: moderate pain; • 7-9 points: severe pain; • 10 points: unbearable pain.

[2] = test system: patients with menstrual abnormalities; assay: Treatment of patients with abnormal menstruation, oral PQQ vs placebo, 3 months; settings: experimental group
Protocol: Experiment number: 100 peoples diagnosed with menstrual abnormalities, 50 people in the experimental group and the control group each. Experimental method: administering PQQ orally to the patients of experimental group, administering placebo orally to the patients of control group. The duration of the experiment was 3 months, and menstrual conditions (duration of menstrual, consumption and weights of sanitary napkin) were measured and recorded.

[3] = test system: patients with primary dysmenorrhea; assay: Treatment of patients with primary dysmenorrhea, oral PQQ vs placebo, 3 months; settings: for Proportion of people with alleviation in primary dysmenorrhea (self-assessment): 50 people
Description: Experiment number: 100 people have been diagnosed with primary dysmenorrhea, 50 people in the experimental group and the control group. Experimental method: administering PQQ orally to the patients of experimental group, administering placebo orally to the patients of control group. The duration of the experiment was 3 months, and menstrual pain was asked and recorded.

For `O=C(O)c1cc(C(=O)O)c2c(n1)C(=O)C(=O)c1cc(C(=O)O)[nH]c1-2` [PQQ, 4,5-dioxo-1H-pyrrolo[2,3-f]quinoline-2,7,9-tricarboxylic acid], the “average dysmenorrhea index (VAS score) change” value ([1]; FIG. 1, during treatment) was “decreased significantly”, the “Proportion of people with alleviation in secondary dysmenorrhea” value ([1]; evaluation time 1 month) was 82% and the “Proportion of people with alleviation in secondary dysmenorrhea” value ([1]; evaluation time 3 months) was 100%. The “cases that became pregnant” value ([1]; experimental group of 50, 3 months) was 2 cases, the “dysmenorrhea index alleviated compared to the beginning of the experiment” value ([1]; experimental group, 3 months) was 100% and the “average monthly menstrual bleeding duration after treatment” value ([2]; 3 months oral, FIG. 2) was “about 1 week”. The “decrease of average amount of menstrual bleeding” value ([2]; 3 months oral, FIG. 3 (sanitary napkin consumption)) was “more than 30%”, the “average monthly menstrual bleeding duration at beginning of the experiment” value ([2]; baseline, FIG. 2) was “about 2 weeks” and the “Proportion of people with alleviation in primary dysmenorrhea (self-assessment)” value ([3]; evaluation time 1 month) was 98%. For the same compound, the “Proportion of people with alleviation in primary dysmenorrhea (self-assessment)” value ([3]; evaluation time 3 months) was 100% and the “dysmenorrhea index alleviated compared to beginning of the experiment” value ([3]; experimental group, 3 months) was 100%.

Reference: US20230398109A1, “USE OF PQQ AND DERIVATIVE THEREOF” (GUANGZHOU HUTONGYOUWU BIOTECHNOLOGY CO., LTD, priority 2021, published 2023)
